Experimental data published in patent US20190119251A1, “AMIDE-SUBSTITUTED ARYLTRIAZOLE DERIVATIVES AND USES THEREOF” (BAYER PHARMA AKTIENGESELLSCHAFT, priority 2016, published 2019).

What was measured:
[1] = biological target: T1, human V2 receptor (Homo sapiens, UniProt P30518); assay: Cellular in vitro assay for determining vasopressin receptor activity (V2 cell line, CRE-luciferase); assay type: cell-based; conditions: CHO cell line transfected with the human V2 receptor; agonist [Arg8]-vasopressin at EC50 concentration; 3 hours incubation; read-out: IC50 hV2
T1 construct: expressed in transfected cells; host or cells: CHO K1 (Chinese hamster ovary) expressing firefly luciferase under a CRE-responsive promoter
T1 sequence (P30518 whole entry): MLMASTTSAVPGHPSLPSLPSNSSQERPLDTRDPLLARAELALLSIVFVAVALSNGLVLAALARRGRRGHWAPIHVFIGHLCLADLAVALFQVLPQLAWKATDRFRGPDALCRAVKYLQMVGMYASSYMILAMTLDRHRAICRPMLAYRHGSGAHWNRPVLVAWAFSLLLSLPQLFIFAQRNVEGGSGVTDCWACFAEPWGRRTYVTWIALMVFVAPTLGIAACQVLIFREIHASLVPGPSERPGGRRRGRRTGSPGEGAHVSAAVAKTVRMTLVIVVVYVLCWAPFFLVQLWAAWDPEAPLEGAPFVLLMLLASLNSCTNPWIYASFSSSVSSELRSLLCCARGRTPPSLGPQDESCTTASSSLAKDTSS
Description: (§1) B-1. Cellular In Vitro Assay for Determining Vasopressin Receptor Activity
(§2) The identification of agonists and antagonists of the V 1 a and V2 vasopressin receptors from humans, rats and dogs as well as the quantification of the activity of the compounds of the invention is carried out using recombinant cell lines. These cell lines originally derive from a hamster's ovary epithelial cell (Chinese Hamster Ovary, CHO K1, ATCC: American Type Culture Collection, Manassas, Va. 20108, USA). The test cell lines constitutively express the human, rat or dog
(§3) V1 a or V2 receptors. In case of the Gag-coupled V 1 a receptors, cells are also stably transfected with a modified form of the calcium-sensitive photoproteins aequorin (human and rat V1a) or obelin (dog V 1 a), which, after reconstitution with the cofactor coelenterazine, emit light when there are increases in free calcium concentrations [Rizzuto R, Simpson A W, Brini M, Pozzan T, Nature 358, 325-327 (1992); Illarionov B A, Bondar V S, Illarionova V A, Vysotski E S, Gene 153 (2), 273-274 (1995)]. The resulting vasopressin receptor cells react to stimulation of the recombinantly expressed V 1 a receptors by intracellular release of calcium ions, which can be quantified by the resulting photoprotein luminescence. The Gs-coupled V2 receptors are stably transfected into cell lines expressing the gene for firefly luciferase under control of a CRE-responsible promoter. Activation of V2 receptors induces the activation of the CRE-responsive promoter via cAMP increase, thereby inducing the expression of firefly luciferase. The light emitted by photoproteins of V1a cell lines as well as the light emitted by firefly luciferase of V2 cell lines corresponds to the activation or inhibition of the respective vasopressin receptor. The bioluminescence of the cell lines is detected using a suitable luminometer [Milligan G, Marshall F, Rees S, Trends in Pharmacological Sciences 17, 235-237 (1996)].
Vasopressin V2 Receptor Cell Lines:
On the day before the assay, the cells are plated out in culture medium (DMEM/F12, 2% FCS, 2 mM glutamine, 10 mM HEPES) in 384-well microtiter plates and kept in a cell incubator (96% humidity, 5% v/v CO2, 37° C.). On the day of the assay, test compounds in various concentrations and the agonist [Arg^8]-vasopressin at EC50 concentration are added together to the wells, and plates are incubated for 3 hours in a cell incubator. Upon addition of the cell lysis reagent Triton™ and the substrate luciferin, luminescence of firefly luciferase is measured in a luminometer.
(§4) Table 1A below lists individual IC50 values for the compounds of the invention (including racemic mixtures as well as separated enantiomers) that were obtained from cell lines transfected with the human V1a or V2 receptor: […]

[2] = biological target: T2, human V1a receptor (Homo sapiens, UniProt P37288); assay: Cellular in vitro assay for determining vasopressin receptor activity (V1a cell line, aequorin luminescence); assay type: cell-based; conditions: for IC50: CHO cell line transfected with the human V1a receptor, agonist [Arg8]-vasopressin at EC50 concentration, read-out: IC50 hV1a; for ratio IC50 hV2/hV1a: ratio of cellular IC50 values, human V2 over human V1a
T2 construct: expressed in transfected cells; host or cells: CHO K1 (Chinese hamster ovary), also stably transfected with modified aequorin
T2 sequence (P37288 whole entry): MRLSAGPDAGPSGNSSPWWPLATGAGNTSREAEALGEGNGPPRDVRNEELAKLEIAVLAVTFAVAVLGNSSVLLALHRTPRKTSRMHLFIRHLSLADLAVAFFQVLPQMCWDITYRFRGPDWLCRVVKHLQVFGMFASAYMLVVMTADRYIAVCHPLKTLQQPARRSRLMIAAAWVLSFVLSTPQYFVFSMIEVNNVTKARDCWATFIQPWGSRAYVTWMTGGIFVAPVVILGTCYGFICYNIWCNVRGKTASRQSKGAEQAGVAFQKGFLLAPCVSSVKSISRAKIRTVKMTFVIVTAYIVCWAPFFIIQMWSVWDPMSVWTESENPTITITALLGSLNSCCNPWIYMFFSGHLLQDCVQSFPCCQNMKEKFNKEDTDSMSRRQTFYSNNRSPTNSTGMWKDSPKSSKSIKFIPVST
Description: as §1, §2, §3
Vasopressin V1a Receptor Cell Lines:
On the day before the assay, the cells are plated out in culture medium (DMEM/F12, 2% FCS, 2 mM glutamine, 10 mM HEPES, 5 μg/ml coelenterazine) in 384-well microtiter plates and kept in a cell incubator (96% humidity, 5% v/v CO2, 37° C.). On the day of the assay, test compounds in various concentrations are placed for 10 minutes in the wells of the microtiter plate before the agonist [Arg^8]-vasopressin at EC50 concentration is added. The resulting light signal is measured immediately in a luminometer.
as §4

IC50 [1] [nM] | IC50 [2] [nM] | ratio IC50 hV2/hV1a [2] | Compound
8.73 | 5.1 | 1.7 | CCc1cccnc1-n1nc(Cn2nc(-c3ccc(Cl)cc3)n(C[C@H](O)C(F)(F)F)c2=O)nc1C(N)=O [Example 1, 3-({3-(4-Chlorophenyl)-5-oxo-4-[(2S)-3,3,3-trifluoro-2-hydroxypropyl]-4,5-dihydro-1H-1,2,4-triazol-1-yl}methyl)-1-(3-ethylpyridin-2-yl)-1H-1,2,4-triazole-5-carboxamide]
23.2 | 5.15 | 4.5 | Cc1cccnc1-n1nc(Cn2nc(-c3ccc(Cl)cc3)n(C[C@H](O)C(F)(F)F)c2=O)nc1C(N)=O [Example 2, 3-({3-(4-Chlorophenyl)-5-oxo-4-[(2S)-3,3,3-trifluoro-2-hydroxypropyl]-4,5-dihydro-1H-1,2,4-triazol-1-yl}methyl)-1-(3-methylpyridin-2-yl)-1H-1,2,4-triazole-5-carboxamide]
94 | 6.7 | 14.0 | Cc1cnccc1-n1nc(Cn2nc(-c3ccc(Cl)cc3)n(C[C@H](O)C(F)(F)F)c2=O)nc1C(N)=O [Example 3, 3-({3-(4-Chlorophenyl)-5-oxo-4-[(2S)-3,3,3-trifluoro-2-hydroxypropyl]-4,5-dihydro-1H-1,2,4-triazol-1-yl}methyl)-1-(3-methylpyridin-4-yl)-1H-1,2,4-triazole-5-carboxamide]
27 | 7.2 | 3.8 | COc1cccnc1-n1nc(Cn2nc(-c3ccc(Cl)cc3)n(C[C@H](O)C(F)(F)F)c2=O)nc1C(N)=O [Example 4, 3-({3-(4-Chlorophenyl)-5-oxo-4-[(2S)-3,3,3-trifluoro-2-hydroxypropyl]-4,5-dihydro-1H-1,2,4-triazol-1-yl}methyl)-1-(3-methoxypyridin-2-yl)-1H-1,2,4-triazole-5-carboxamide]
46 | 17.5 | 2.6 | NC(=O)c1nc(Cn2nc(-c3ccc(Cl)cc3)n(C[C@H](O)C(F)(F)F)c2=O)nn1-c1ncccc1F [Example 5, 3-({3-(4-Chlorophenyl)-5-oxo-4-[(2S)-3,3,3-trifluoro-2-hydroxypropyl]-4,5-dihydro-1H-1,2,4-triazol-1-yl}methyl)-1-(3-fluoropyridin-2-yl)-1H-1,2,4-triazole-5-carboxamide]
390 | 27 | 14.4 | NC(=O)c1nc(Cn2nc(-c3ccc(Cl)cc3)n(C[C@H](O)C(F)(F)F)c2=O)nn1-c1ccncc1Cl [Example 6, 3-({3-(4-Chlorophenyl)-5-oxo-4-[(2S)-3,3,3-trifluoro-2-hydroxypropyl]-4,5-dihydro-1H-1,2,4-triazol-1-yl}methyl)-1-(3-chloropyridin-4-yl)-1H-1,2,4-triazole-5-carboxamide]
330 | 54 | 6.1 | COC(=O)c1cccnc1-n1nc(Cn2nc(-c3ccc(Cl)cc3)n(C[C@H](O)C(F)(F)F)c2=O)nc1C(N)=O [Example 7, Methyl 2-[5-carbamoyl-3-({3-(4-chlorophenyl)-5-oxo-4-[(2S)-3,3,3-trifluoro-2-hydroxypropyl]-4,5-dihydro-1H-1,2,4-triazol-1-yl}methyl)-1H-1,2,4-triazol-1-yl]pyridine-3-carboxylate]
248 | 70 | 3.5 | NC(=O)c1nc(Cn2nc(-c3ccc(Cl)cc3)n(C[C@H](O)C(F)(F)F)c2=O)nn1-c1ccncc1F [Example 8, 3-({3-(4-Chlorophenyl)-5-oxo-4-[(2S)-3,3,3-trifluoro-2-hydroxypropyl]-4,5-dihydro-1H-1,2,4-triazol-1-yl}methyl)-1-(3-fluoropyridin-4-yl)-1H-1,2,4-triazole-5-carboxamide]
245 | 93.5 | 2.6 | COc1nccnc1-n1nc(Cn2nc(-c3ccc(Cl)cc3)n(C[C@H](O)C(F)(F)F)c2=O)nc1C(N)=O [Example 9, 3-({3-(4-Chlorophenyl)-5-oxo-4-[(2S)-3,3,3-trifluoro-2-hydroxypropyl]-4,5-dihydro-1H-1,2,4-triazol-1-yl}methyl)-1-(3-methoxypyrazin-2-yl)-1H-1,2,4-triazole-5-carboxamide]
152 | 97.5 | 1.6 | NC(=O)c1nc(Cn2nc(-c3ccc(Cl)cc3)n(C[C@H](O)C(F)(F)F)c2=O)nn1-c1cccnc1Cl [Example 10, 3-({3-(4-Chlorophenyl)-5-oxo-4-[(2S)-3,3,3-trifluoro-2-hydroxypropyl]-4,5-dihydro-1H-1,2,4-triazol-1-yl}methyl)-1-(2-chloropyridin-3-yl)-1H-1,2,4-triazole-5-carboxamide]
150 | 115 | 1.3 | NC(=O)c1nc(Cn2nc(-c3ccc(Cl)cc3)n(C[C@H](O)C(F)(F)F)c2=O)nn1-c1ccccn1 [Example 11, 3-({3-(4-Chlorophenyl)-5-oxo-4-[(2S)-3,3,3-trifluoro-2-hydroxypropyl]-4,5-dihydro-1H-1,2,4-triazol-1-yl}methyl)-1-(pyridin-2-yl)-1H-1,2,4-triazole-5-carboxamide]
150 | 125 | 1.2 | Cc1ccnc(Cl)c1-n1nc(Cn2nc(-c3ccc(Cl)cc3)n(C[C@H](O)C(F)(F)F)c2=O)nc1C(N)=O [Example 12, 1-(2-Chloro-4-methylpyridin-3-yl)-3-({3-(4-chlorophenyl)-5-oxo-4-[(2 S)-3,3,3-trifluoro-2-hydroxypropyl]-4,5-dihydro-1H-1,2,4-triazol-1-yl}methyl)-1H-1,2,4-triazole-5-carboxamide]
525 | 135 | 3.9 | CCOc1ncccc1-n1nc(Cn2nc(-c3ccc(Cl)cc3)n(C[C@H](O)C(F)(F)F)c2=O)nc1C(N)=O [Example 13, 3-({3-(4-Chlorophenyl)-5-oxo-4-[(2S)-3,3,3-trifluoro-2-hydroxypropyl]-4,5-dihydro-1H-1,2,4-triazol-1-yl}methyl)-1-(2-ethoxypyridin-3-yl)-1H-1,2,4-triazole-5-carboxamide]
638 | 152 | 4.2 | NC(=O)c1ccncc1-n1nc(Cn2nc(-c3ccc(Cl)cc3)n(C[C@H](O)C(F)(F)F)c2=O)nc1C(N)=O [Example 14, 3-[5-Carbamoyl-3-({3-(4-chlorophenyl)-5-oxo-4-[(2S)-3,3,3-trifluoro-2-hydroxypropyl]-4,5-dihydro-1H-1,2,4-triazol-1-yl}methyl)-1H-1,2,4-triazol-1-yl]pyridine-4-carboxamide]
35 | 175 | 0.2 | NC(=O)c1nc(Cn2nc(-c3ccc(Cl)cc3)n(C[C@H](O)C(F)(F)F)c2=O)nn1-c1cc(Cl)ccn1 [Example 15, 3-({3-(4-Chlorophenyl)-5-oxo-4-[(2S)-3,3,3-trifluoro-2-hydroxypropyl]-4,5-dihydro-1H-1,2,4-triazol-1-yl}methyl)-1-(4-chloropyridin-2-yl)-1H-1,2,4-triazole-5-carboxamide]
2250 | 690 | 3.3 | NC(=O)c1nc(Cn2nc(-c3ccc(Cl)cc3)n(C[C@H](O)C(F)(F)F)c2=O)nn1-c1ncccn1 [Example 16, 3-({3-(4-Chlorophenyl)-5-oxo-4-[(2S)-3,3,3-trifluoro-2-hydroxypropyl]-4,5-dihydro-1H-1,2,4-triazol-1-yl}methyl)-1-(pyrimidin-2-yl)-1H-1,2,4-triazole-5-carboxamide]
